Measured values taken from patent publication US20010047099A1, “4-aminopicolinates and their use as herbicides” (priority 2000, published 2001).
Read-outs that look alike come from different tables or passages of the source.

How the values were obtained:
Type in all cases: in vivo
[1] = system: pigweed (Amaranthus retroflexus); assay: Postemergence herbicidal activity; details: Amaranthus retroflexus, post-emergence, 336 h, Table 2, rate 125 ppm, after 2 weeks, read-out: POSTMERGENCE HERBICIDAL ACTIVITY % CONTROL AMARE
Outline: (§1)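 Greenhouse plants at first or second true leaf stage sprayed to coverage with compound in acetone/water/isopropanol/DMSO/crop oil/surfactant mixture; 1 ppm ≈ 1 g/Ha. Plants sub-irrigated afterward. Injury scored visually after 2 weeks versus untreated plants, 0 (none) to 100% (complete kill).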

[2] = system: barnyardgrass (Echinochloa crus-galli); assay: Postemergence herbicidal activity; details: for inhibition at 125 ppm: Echinochloa crus-galli, post-emergence, 336 h, Table 2, rate 125 ppm, after 2 weeks, read-out: POSTMERGENCE HERBICIDAL ACTIVITY % CONTROL ECHCG; for post emergent evaluation - % control ECHCG: Table 3, weeds in rice, rate 250 ppm
Outline: as §1

viola (Viola tricolor) = assay: Postemergence herbicidal activity; details: post-emergence, 336 h
Outline: as §1

wild oats (Avena fatua) = assay: Postemergence herbicidal activity; details: post-emergence, 336 h
Outline: as §1

[3] = system: velvetleaf (Abutillon theophrasti); assay: Postemergence herbicidal activity; details: Abutilon theophrasti, post-emergence, 336 h, Table 2, rate 125 ppm, after 2 weeks, read-out: POSTMERGENCE HERBICIDAL ACTIVITY % CONTROL ABUTH
Outline: as §1

[4] = system: blackgrass (Alopecurus myosuroides); assay: Postemergence herbicidal activity; details: post-emergence, 336 h
Outline: as §1

[5] = system: lambsquarters (Chenopodium album); assay: Postemergence herbicidal activity; details: for inhibition at 125 ppm: Chenopodium album, post-emergence, 336 h, Table 2, rate 125 ppm, after 2 weeks, read-out: POSTMERGENCE HERBICIDAL ACTIVITY % CONTROL CHEAL
Outline: as §1

[6] = system: Rox orange sorghum (sorghum bicolor); assay: Postemergence herbicidal activity; details: post-emergence, 336 h
Outline: as §1

[7] = system: crabgrass (Digitaria sanguinalis); assay: Postemergence herbicidal activity; details: post-emergence, 336 h
Outline: as §1

[8] = system: giant foxtail (Setaria faberi); assay: Postemergence herbicidal activity; details: post-emergence, 336 h
Outline: as §1

rice (Oryza sativa) = assay: Postemergence herbicidal activity, selectivity to rice; details: Table 3; crop (rice); rate 250 ppm
Description: Seeds of the desired test plant species were planted in Grace-Sierra MetroMix® 306 planting mixture, which typically has a pH of 6.0 to 6.8 and an organic matter content of about 30 percent, in plastic pots with a surface area of 64 square centimeters. When required to ensure good germination and healthy plants, a fungicide treatment and/or other chemical or physical treatment was applied. The plants were grown for 7-21 days in a greenhouse with an approximate 15 hr photoperiod which was maintained at about 23-29° C. during the day and 22-28° C. during the night. Nutrients and water were added on a regular basis and supplemental lighting was provided with overhead metal halide 1000-Watt lamps as necessary. The plants were employed for testing when they reached the first or second true leaf stage.
A weighed amount, determined by the highest rate to be tested, of each test compound was placed in a 20 mL glass vial and was dissolved in 4 mL of a 97:3 v/v (volume/volume) mixture of acetone and dimethyl sulfoxide (DMSO) to obtain concentrated stock solutions. […] The concentrated stock solutions obtained were diluted with an aqueous mixture containing acetone, water, isopropyl alcohol, DMSO, Atplus 411F crop oil concentrate, and Triton X-155 surfactant in a 48.5:39:10:1.5:1.0:0.02 v/v ratio to obtain spray solutions of known concentration. The solutions containing the highest concentration to be tested were prepared by diluting 2 mL aliquots of the stock solution with 13 mL of the mixture and lower concentrations were prepared by serial dilution of the stock solution. […]
The treated plants and control plants were placed in a greenhouse as described above and watered by sub-irrigation to prevent wash-off of the test compounds. After 2 weeks the condition of the test plants as compared with that of the untreated plants was determined visually and scored on a scale of 0 to 100 percent where 0 corresponds to no injury and 100 corresponds to complete kill.

[9] = system: White Clover (Trifolium repens); assay: Range & Pasture Crop Testing (postemergence track sprayer); details: Table 10
Outline: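 Postemergence track-sprayer application at 187 L/ha, compounds formulated in 97:3 acetone:DMSO with 0.25% X-77, five rates (X serially diluted to 1/16×). Visual percent control (0–100 scale, burn down) rated 3 weeks after treatment; GR50/GR80 derived by probit analysis.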

[10] = Table 2, rate 125 ppm, after 2 weeks, read-out: POSTMERGENCE HERBICIDAL ACTIVITY % CONTROL VIOTR
[11] = Table 2, rate 125 ppm, after 2 weeks, read-out: POSTMERGENCE HERBICIDAL ACTIVITY % CONTROL AVEFA
[12] = Table 2, rate 125 ppm, after 2 weeks, read-out: POSTMERGENCE HERBICIDAL ACTIVITY % CONTROL ALOMY
[13] = Table 2, rate 125 ppm, after 2 weeks, read-out: POSTMERGENCE HERBICIDAL ACTIVITY % CONTROL SORBI
[14] = Table 2, rate 125 ppm, after 2 weeks, read-out: POSTMERGENCE HERBICIDAL ACTIVITY % CONTROL DIGSA
[15] = Table 2, rate 125 ppm, after 2 weeks, read-out: POSTMERGENCE HERBICIDAL ACTIVITY % CONTROL SETFA

Row | Compound | post emergent evaluation - % control ECHCG [2] [%] | post emergent evaluation - % control ORYZA (rice (Oryza sativa)) [%] | GR20 TRFRE [9] [g/ha] | inhibition at 125 ppm [1] [%] | inhibition at 125 ppm [2] [%] | inhibition at 125 ppm (viola (Viola tricolor); [10]) [%] | inhibition at 125 ppm (wild oats (Avena fatua); [11]) [%] | inhibition at 125 ppm [3] [%] | inhibition at 125 ppm [4, 12] [%] | inhibition at 125 ppm [5] [%] | inhibition at 125 ppm [6, 13] [%] | inhibition at 125 ppm [7, 14] [%] | inhibition at 125 ppm [8, 15] [%] | further results
1 | Nc1cc(Cl)nc(C(=O)O)c1Cl [Compound 1, 4-Amino-3,6-dichloropyridine-2-carboxylic acid] | 75 | 10 |  |  |  |  |  |  |  |  |  |  |  | inhibition at 125 ppm ([1]; read-out: PO[…] % CONTROL AMARE): 95%; inhibition at 125 ppm ([2]; read-out: PO[…] % CONTROL ECHCG): 45%; inhibition at 125 ppm (viola (Viola tricolor); read-out: PO[…] % CONTROL VIOTR, Table 2, rate 125 ppm, after 2 weeks, read-out: POSTMERGENCE HERBICIDAL ACTIVITY % CONTROL VIOTR): 80%; inhibition at 125 ppm (wild oats (Avena fatua); read-out: PO[…] % CONTROL AVEFA, Table 2, rate 125 ppm, after 2 weeks, read-out: POSTMERGENCE HERBICIDAL ACTIVITY % CONTROL AVEFA): 50%; inhibition at 125 ppm ([3]; read-out: PO[…] % CONTROL ABUTH): 70%; inhibition at 125 ppm ([4]; read-out: PO[…] % CONTROL ALOMY, Table 2, rate 125 ppm, after 2 weeks, read-out: POSTMERGENCE HERBICIDAL ACTIVITY % CONTROL ALOMY): 50%; inhibition at 125 ppm ([5]; read-out: PO[…] % CONTROL CHEAL): 100%; inhibition at 125 ppm ([6]; read-out: PO[…] % CONTROL SORBI, Table 2, rate 125 ppm, after 2 weeks, read-out: POSTMERGENCE HERBICIDAL ACTIVITY % CONTROL SORBI): 50%; inhibition at 125 ppm ([7]; read-out: PO[…] % CONTROL DIGSA, Table 2, rate 125 ppm, after 2 weeks, read-out: POSTMERGENCE HERBICIDAL ACTIVITY % CONTROL DIGSA): 60%; inhibition at 125 ppm ([8]; read-out: PO[…] % CONTROL SETFA, Table 2, rate 125 ppm, after 2 weeks, read-out: POSTMERGENCE HERBICIDAL ACTIVITY % CONTROL SETFA): 75%
2 | COC(=O)c1nc(Cl)cc(N)c1Cl [Compound 3, methyl 4-amino-3,6-dichloropyridine-2-carboxylate] |  |  | <17.5 |  |  |  |  |  |  |  |  |  |  | 
3 | CCOC(=O)c1nc(Cl)cc(N)c1Cl [Compound 4, ethyl 4-amino-3,6-dichloropyridine-2-carboxylate] |  |  | <17.5 | 100 | 50 | 70 | 40 | 70 | 40 | 100 | 40 | 70 | 75 | 
4 | Nc1cc(Br)nc(C(=O)O)c1Cl [Compound 14, 4-Amino-6-bromo-3-chloropyridine-2-carboxylic acid] | 65 | 10 |  | 90 | 65 | 75 | 40 | 85 | 50 | 95 | 60 | 65 | 65 | Post-emergent Evaluation - % control CHEAL ([5]; Table 5, rate 250 ppm): 70%
5 | Nc1c(F)c(Cl)nc(C(=O)O)c1Cl [Compound 19, 4-Amino-3,6-dichloro-5-fluoropyridine-2-carboxylic acid] |  |  |  | 60 | 10 | 50 | 20 | 50 | 20 | 95 | 10 | 30 | 20 | 
